The subject of this test is P. falciparum 3D7 growth, pLDH absorbance. In words: P. falciparum 3D7 growth inhibition, dose response, strain 3D7 (AID 2305).

The source of these data is PubChem BioAssay AID2305 (GlaxoSmithKline (GSK), 2010).

As for `O=C(Nc1ccc(N2CCC(Nc3ccccn3)CC2)cc1)c1cnc(Cl)c(Cl)c1`, the concentration for half-maximal inhibition (IC50) is 1190 nM.
Under `COc1cc2nc(N3CCC(CNC(=O)c4ccc(-c5ccc(O)cc5)cc4)CC3)nc(N)c2cc1OC` stands 170 nM; under `Fc1ccccc1C=NNc1ccnc2ccc(C(F)(F)F)cc12`, 870 nM; under `CCOc1ccc(C(=O)Nc2cc(Br)c3c(c2)CNCC3)cc1Cl`, 1040 nM.
`Cc1ccc(Nc2nccc(N(C)c3ccc4c(c3)nc(NC(=O)Cc3ccc(Cl)c(Cl)c3)n4C)n2)cc1S(N)(=O)=O` had an IC50 of 1110 nM.
`CSc1ccccc1NC(=S)NC1CCN(CCCCCNC(=O)/C=C/c2ccc(Cl)c(Cl)c2)CC1` had a concentration for half-maximal inhibition (IC50) of 780 nM.
Under `CN1CCCc2ccc(NC(=O)Nc3ccc(-c4ccccc4)cc3)cc2C1` stands 380 nM; under `Cc1ccc(-c2ccc(NC(=O)N3CCc4cc(Br)c(N5CCN(C)CC5)cc43)cc2)cn1`, 1350 nM.
For `C(=N\Nc1nccc2sc(-c3ccccc3)cc12)/c1cccnc1` the value was 820 nM; for `CCOc1ccc(C(C)NC(=O)C2COc3ccccc3O2)cc1OCC` (stereo unspecified), 900 nM.
For `Nc1ccc(-c2cc(Cl)cc(Cl)c2)cc1-c1cc2ccccc2[nH]1` the value was 690 nM; for `NC(N)=NC(=O)Nc1cc(Br)c(Cl)c(C(F)(F)F)c1`, 760 nM; for `O=C(N[C@@H](CC1CCCCC1)C(=O)NC1CCCc2ccccc21)c1ccc(O)c(-c2ccc(Cl)c(Cl)c2)c1` (stereo partly specified), 200 nM.
`CC(C)C[C@H](Nc1ccnc(NCC2CCCCC2)n1)C(=O)Nc1ccccc1` came in with an IC50 of 1430 nM.
Under `COC(=O)C(Cc1ccccc1)C(CSCc1ccc(OC)cc1)C(=O)N[C@@H](C(=O)OC(C)(C)C)c1ccc(C(C)(C)C)cc1` (stereo partly specified) stands 1030 nM.
For `O=C(Nc1cccc(CN2CCCN(Cc3cccc(O)c3)CC2)c1)c1ccc(-c2ccccc2)cc1`, the half-inhibitory concentration (IC50) amounted to 640 nM.
The molecule `CCc1cccc(-c2cc(=N)n(C)c3nc(N)[nH]c(=O)c23)c1` returned an IC50 of 1120 nM.
Under `CCCCn1c(N)c(N(Cc2ccco2)C(=O)C=Cc2cc(OC)c3c(c2)OCCO3)c(=O)[nH]c1=O` stands 950 nM; under `O=C(NCc1ccc(Cl)c(Cl)c1)c1cc(CNC2CCNCC2)ccc1O`, 860 nM; under `Nc1cccc(CNCc2ccc(-c3ccc(-c4nc5ccc(C(F)(F)F)cc5[nH]4)s3)cc2)c1`, 440 nM.
Under `Cc1cccc2[nH]c(-c3ccc(-c4cccc(CNCCCNS(C)(=O)=O)c4)s3)nc12` stands 1020 nM; under `CCOc1ccc2nc(C)cc(NN=Cc3ccccc3[N+](=O)[O-])c2c1`, 30 nM; under `CCN(Cc1ccc(-c2ccc(C(F)(F)F)cc2)cc1)C(=O)Cn1c(SCc2cccc(F)c2F)cc(=O)c2cc(CN3CCCCC3)ccc21`, 800 nM.
Take `Cc1nc2ccc(F)cc2n1C1CCN(C(=O)Cc2ccc(F)c(F)c2)CC1`: the half-inhibitory concentration (IC50) is 1410 nM.
Under `Cc1[nH]c(C)c(-c2ccc(CCc3ccc(C(F)(F)F)cc3)nc2)c(=O)c1Cl` stands 90 nM; under `O=C(NCCNc1ccnc(Nc2ccc(F)cc2)n1)Nc1ccccc1F`, 760 nM; under `Cc1[nH]c(C)c(-c2ccc(Oc3ccc(O)cc3)cc2)c(=O)c1Cl`, 1040 nM.
Under `COc1ccc2nc(C)cc(NN=Cc3ccc([N+](=O)[O-])o3)c2c1` stands 700 nM; under `CCOC(=O)c1[nH]c2ccc(F)cc2c1NC(=O)CN1CCN(c2cccc(C(F)(F)F)c2)CC1`, 460 nM; under `COCCn1c(C)cc(C(=O)CN2C(=O)NC(C)(c3ccc(C(C)(C)C)cc3)C2=O)c1C` (stereo unspecified), 470 nM.
For `CC1(C(=O)Nc2ccc([N+](=O)[O-])cc2O)CC2c3ccccc3C1c1ccccc12` (stereo unspecified) the value was 710 nM.
As for `Cc1ccc(NC(=S)N2CCCN(CCCCCNC(=O)/C=C/c3ccc(Cl)c(Cl)c3)CC2)cc1Cl`, the concentration for half-maximal inhibition (IC50) was 920 nM.
The molecule `C[C@@H]1CN(c2cnn(Cc3cccc(NC(=O)Nc4cccc(C(F)(F)F)c4)c3)c(=O)c2Cl)C[C@H](C)N1` had an IC50 of 820 nM.
For `COc1ccc(CNC2Cc3ccccc3C2)cc1-c1ccc(S(=O)(=O)NCCN2CCCC2)c(F)c1` the value was 720 nM.
`O=C(Cc1cccnc1)Nc1cccc(-c2cccc(-c3nc4ccc(C(F)(F)F)cc4[nH]3)c2)c1`: the half-maximal inhibitory concentration (IC50) turned out to be 680 nM.
Under `COc1ccc(CCNCCCCCCNCCc2cccc([N+](=O)[O-])c2)cc1OC` stands 1000 nM; under `CN(Cc1ccc(NC(=O)CCC2CCN(C(=O)/C=C/c3ccc(Cl)c(Cl)c3)CC2)cc1)C1CCOCC1`, 1730 nM; under `CC(=O)c1cccc(NC(=O)N2CCCN(CCCCCNC(=O)/C=C/c3ccc(Cl)c(Cl)c3)CC2)c1`, 1010 nM.
Turning to `CCCCCC(C)N=C(Nc1ccc([N+](=O)[O-])cc1O)Nc1ccccc1Br` (stereo unspecified), the concentration for half-maximal inhibition (IC50) is 620 nM.
Under `O=S(=O)(ON=C1CCc2ccccc21)c1ccc(Cl)cc1` stands 1310 nM.
For `COc1ccc(-c2ccc3c(-c4cccc(S(C)(=O)=O)c4)cnc(N)c3c2)cc1` the value was 1330 nM; for `N#Cc1ccc(N(CCOc2ccc(Cl)c(Cl)c2)Cc2ccccc2C(F)(F)F)cc1C(F)(F)F`, 1110 nM.
Consider `FC(F)(F)c1ccc2c(NCCc3ccccc3)ccnc2c1`, for which the half-maximal inhibitory concentration (IC50) was 1270 nM.
Consider `Cc1cc(C)c(NC(=O)N[C@H]2CCN(CCCCCNC(=O)/C=C/c3ccc(Cl)c(Cl)c3)C2)c(C)c1`, for which the half-maximal inhibitory concentration (IC50) is 950 nM.
For `NCc1cccc(-c2ccccc2CNC2CCN(Cc3ccccc3)CC2)c1` the value was 770 nM; for `CC(Cc1ccc(NC(=O)COc2ccc(CC(C)NCCc3cccc(Cl)c3)cc2)cc1)NCCc1cccc(Cl)c1` (stereo unspecified), 80 nM; for `COCCNC(=O)C(CNC(=O)c1ccc2c(c1)OCO2)NC(=O)c1ccc(-c2ccccc2)cc1` (stereo unspecified), 970 nM.
`O=C(N[C@@H](CC1CCCCC1)C(=O)NCCN1CCCCC1)c1ccc(O)c(-c2ccc(Cl)c(Cl)c2)c1` came in with an IC50 of 150 nM.
Under `C[C@@H](C(=O)N1CCOCC1)N1CC[C@H](NS(=O)(=O)c2ccc3ccnc(N)c3c2)C1=O` stands 1500 nM; under `COc1ccc(-c2cc3nc4c(c(NCCCn5ccnc5)n3n2)CCCC4)cc1`, 730 nM.
Under `Cc1ccc(Cl)cc1NC(=O)c1c(-c2ccccc2Cl)noc1C` stands 190 nM.
Under `CN1CCN(c2ccnc3cc4c(cc23)N(C(=O)Nc2ccc3c(c2)CCCC3=O)CC4)CC1` stands 620 nM.
On to `COc1cc(Cc2cnc(N)nc2N)ccc1OCc1ccc(-c2csnn2)cc1`, for which the IC50 came to 630 nM.
Under `CC(C)(Oc1c(C2CCN(CCCCNC(=O)c3ccc(-c4ccc(C#N)cc4)cc3)CC2)ccc2c1CCCC2)C(N)=O` stands 700 nM; under `CC(C)(C)c1ccc(OC(=O)c2ccc(NC(=O)N[C@@H](Cc3ccc(O)cc3)C(=O)NC3CCN(Cc4ccc(O)cc4)C3)cc2)cc1` (stereo partly specified), 810 nM; under `Cc1csc(-c2ccc3[nH]cc(C4=CCN(C)CC4)c3c2)n1`, 750 nM.
For `O=c1cc(NCCCNCc2cc3ccccc3s2)[nH]c2ccccc12` the value was 1270 nM; for `Cc1[nH]c(C)c(-c2ccc(-c3ccc(Cl)cc3)nc2)c(=O)c1Cl`, 110 nM; for `Cc1ccc(CNC(=O)c2ccc(CN3CCCN(Cc4ccsc4)CC3)cc2)cc1`, 870 nM.
For `Cc1nc(C)c(CC(=O)Nc2ccc(-c3cccc(-c4nc5c(C)cccc5[nH]4)c3)cc2)s1` the value was 600 nM; for `Cc1cc(Nc2ccc(C)c(Cl)c2)n2ncnc2n1`, 550 nM; for `CN1CCN(S(=O)(=O)c2ccc3nccc(Nc4ccc(Oc5ccccc5)cc4)c3c2)CC1`, 820 nM.
The molecule `Cc1cc(-c2cccc(CNCc3ccccc3)c2)ccc1S(=O)(=O)NCCN1CCCC1` returned an IC50 of 730 nM.
Under `CCCNC[C@@H](O)[C@H](Cc1ccccc1)NC(=O)c1cc(NCC)cc(N2CCCCS2(=O)=O)c1` stands 220 nM.
Under `CN1CCC(Oc2cc(NC(=O)Nc3ccc(-c4ccncc4)c(C(F)(F)F)c3)ccc2Cl)CC1` stands 780 nM; under `COc1ccc(C=NNc2cc(C)nc3ccccc23)cc1OC`, 860 nM.
With `O=S1(=O)NCc2ccc(Nc3nccc(Nc4ccc5c(cnn5Cc5ccccc5)c4)n3)cc21`, the IC50 was 750 nM.
For `Nc1c2c(nc3ccc(NC(=O)CCCCCCc4ccccc4)cc13)CCCC2` the value was 250 nM; for `C=C(C)C1CC=C(CN2CCCC(n3ccc4cc(NC(=O)c5ccco5)ccc43)CC2)CC1` (stereo unspecified), 750 nM.
For `COc1ccccc1CC(C)NCC(O)c1cccc(Cl)c1` (stereo unspecified) the value was 810 nM; for `O=C(c1cc(-c2cccs2)[nH]n1)N1CCN(S(=O)(=O)c2ccc(Br)cc2)CC1`, 360 nM; for `COc1ccc2nccc([C@@H](O)CN3CCC(NCc4ccc5nsnc5c4)CC3)c2c1`, 960 nM.
For `Cc1[nH]c2ccccc2c1C1CCN(CC2CCC(NC(=O)/C=C/c3ccc(Cl)c(Cl)c3)CC2)CC1` (stereo unspecified) the value was 820 nM.
`COc1ccc(-c2ccc(NC(=O)c3ccc(Cl)cc3)cc2)cc1CN1CCN(C)CC1`: the concentration for half-maximal inhibition (IC50) turned out to be 820 nM.
Under `CCNC(=O)Nc1ccc(N(C)c2ccnc(NC3CC3)n2)cc1` stands 800 nM.
Under `Cc1csc2nc(-c3ccccn3)nc(Nc3ccncn3)c12` stands 790 nM; under `CC(C)(C)c1cc(NC(=O)c2ccc(Cl)c([N+](=O)[O-])c2)cc(C(C)(C)C)c1`, 1030 nM; under `Cc1cc(NN=Cc2ccc(Cl)cc2)c2ccccc2n1`, 790 nM.
For `O=S(=O)(NCCN1CCCC1)c1cccc(-c2cccc(CNCc3ccc(F)cc3)c2)c1` the value was 850 nM; for `CCN(CC)CCN(Cc1ccc(-c2ccc(C(F)(F)F)cc2)cc1)C(=O)Cn1c(CCc2cc(F)cc(F)c2F)nc(=O)c2ccccc21`, 760 nM.
`Cc1cccc2[nH]c(-c3cccc(-c4ccc(NC(=O)Cc5ccccn5)cc4)c3)nc12` returned a half-inhibitory concentration (IC50) of 790 nM.
Under `CCc1c[nH]c2c(N3CCCC3=O)cc(C(=O)N[C@@H](Cc3ccccc3)[C@H](O)CNC(C)(C)CCCC(C)C)cc12` stands 510 nM.
In the case of `CCn1ncc2c(N3CCCC3=O)cc(C(=O)N[C@@H](Cc3ccccc3)[C@H](O)CNC(C)(C)c3cccc(C(F)(F)F)c3)cc21`, the half-maximal inhibitory concentration (IC50) stood at 150 nM.
Under `CN(C)c1ccc(C=C2SC(=N)N(c3nccs3)C2=O)cc1` stands 460 nM; under `Cn1nc(C(F)(F)F)cc1-c1ccc(C(=O)Nc2ccc3c(c2)CNCC3(C)C)s1`, 1010 nM; under `O=C(/C=C/c1ccc(Cl)cc1)NCCCCCN1CCCC(C(=O)Nc2ccc(F)c(Cl)c2)C1` (stereo unspecified), 1120 nM.
